Data on nine compounds can be found in US20260184725A1, “CYCLIC 2-AMINOPYRIMIDINE COMPOUND AND PHARMACEUTICAL COMPOSITION AND USE THEREOF” (SHANGHAI INSTITUTE OF ORGANIC CHEMISTRY, CHINESE ACADEMY OF …, priority 2023, published 2026).

The structures appear in SMILES notation.

Common to all, as to format: biochemical
Assay [1] addresses T1, EGFR^19del/T790M/C797S (Homo sapiens, UniProt P00533, T790M/C797S, form not given).
T1 construct: fused on or other part: Probably a GST tag on the cytoplasmic fragment, as in the vendor's product
Briefly: ELISA kinase activity inhibition, EGFR 19del/T790M/C797S. The settings on record: ATP 5 μM, read-out: The average IC50 value (nM) for inhibiting the activity of different tyrosine kinases, EGFR^19del/T790M/C797S. On the procedure: (§1) EGFR (WT) is a wild-type epidermal growth factor receptor.
(§2) Enzyme-Linked Immunosorbent Assay (ELISA) was used to detect the inhibitory effect of compounds on kinase activity.
(§3) The main experimental steps were as follows: Enzyme reaction substrate Poly (Glu, Tyr)4:1 was diluted with potassium free PBS (10 mM sodium phosphate buffer, 150 mM NaCl, pH 7.2-7.4) to 20 μg/mL, and reacted at 37° C. for 12 hours to 16 hours to coat the enzyme-linked immunosorbent assay plate. ATP solution (final concentration 5 μM) diluted with reaction buffer (50 mM HEPES pH 7.4, 50 mM MgCl2, 0.5 mM MnCl2, 0.2 mM Na3VO4, 1 mM DTT) was added to each well, followed by the test compound or solvent control, then the kinase reaction was initiated and the plate was shaken at 37° C. for 1 hour. The plate was washed three times with T-PBS, then added antibody PY99. The plate was shaken at 37° C. for 0.5 hours. After washing the plate with T-PBS, added horseradish peroxidase-labeled IgG and shaken at 37° C. for 0.5 hours. After washing the plate again, added 2 mg/mL of OPD colorimetric solution and incubated at 25° C. in the dark for 1 minutes to 10 minutes. […] The IC50 values were obtained from the inhibition curve analysis.
In general terms: An ELISA detects its analyte on a solid surface through an enzyme-linked reagent.

Assay [2] concerns the target T2, EGFR^WT (Homo sapiens, UniProt P00533).
T2 construct: purchased Eurofins
Description: ELISA kinase activity inhibition, wild-type EGFR. The settings on record: ATP 5 μM, read-out: The average IC50 value (nM) for inhibiting the activity of different tyrosine kinases, EGFR^WT. On the procedure: as §1, §2, §3

The target of assay [3] is EGFR^L858R/T790M/C797S (Homo sapiens, UniProt P00533, C797S/L858R/T790M). Description: ELISA kinase activity inhibition, EGFR L858R/T790M/C797S. To be noted: ATP 5 μM, read-out: The average IC50 value (nM) for inhibiting the activity of different tyrosine kinases, EGFR^L858R/T790M/C797S. As to the method:
as §2, §3

T2 sequence (P00533 25-1210): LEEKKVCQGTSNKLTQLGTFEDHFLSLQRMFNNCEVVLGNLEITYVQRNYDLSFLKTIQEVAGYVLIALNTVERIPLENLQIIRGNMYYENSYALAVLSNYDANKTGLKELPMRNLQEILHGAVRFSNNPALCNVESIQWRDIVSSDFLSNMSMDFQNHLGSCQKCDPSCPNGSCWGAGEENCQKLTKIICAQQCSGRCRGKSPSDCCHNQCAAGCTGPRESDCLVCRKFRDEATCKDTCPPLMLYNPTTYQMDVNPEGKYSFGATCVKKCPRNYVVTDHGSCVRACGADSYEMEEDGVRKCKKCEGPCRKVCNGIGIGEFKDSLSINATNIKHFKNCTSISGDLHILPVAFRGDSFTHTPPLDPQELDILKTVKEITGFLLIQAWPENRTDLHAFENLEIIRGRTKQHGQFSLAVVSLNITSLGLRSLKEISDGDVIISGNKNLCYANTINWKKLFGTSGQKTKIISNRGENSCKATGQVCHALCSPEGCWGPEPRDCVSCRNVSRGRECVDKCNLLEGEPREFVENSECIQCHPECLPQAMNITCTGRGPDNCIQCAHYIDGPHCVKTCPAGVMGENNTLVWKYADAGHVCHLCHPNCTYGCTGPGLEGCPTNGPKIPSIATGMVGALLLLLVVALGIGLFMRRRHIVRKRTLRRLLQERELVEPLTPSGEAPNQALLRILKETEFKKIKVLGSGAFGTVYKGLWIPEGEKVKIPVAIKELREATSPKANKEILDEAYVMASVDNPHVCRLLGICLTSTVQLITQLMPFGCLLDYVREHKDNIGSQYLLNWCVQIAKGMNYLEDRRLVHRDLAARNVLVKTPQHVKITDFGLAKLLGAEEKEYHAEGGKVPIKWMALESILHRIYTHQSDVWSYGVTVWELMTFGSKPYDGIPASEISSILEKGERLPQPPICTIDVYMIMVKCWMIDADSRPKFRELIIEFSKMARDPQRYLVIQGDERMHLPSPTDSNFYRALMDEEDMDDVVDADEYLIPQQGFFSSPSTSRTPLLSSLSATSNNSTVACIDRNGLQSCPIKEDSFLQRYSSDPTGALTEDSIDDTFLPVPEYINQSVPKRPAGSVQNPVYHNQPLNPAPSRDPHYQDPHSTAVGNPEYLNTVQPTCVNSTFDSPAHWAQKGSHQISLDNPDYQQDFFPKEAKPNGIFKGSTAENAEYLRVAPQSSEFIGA
T1 sequence (P00533 with tags, fused parts or gaps DEL746-750/T790M/C797S, form open): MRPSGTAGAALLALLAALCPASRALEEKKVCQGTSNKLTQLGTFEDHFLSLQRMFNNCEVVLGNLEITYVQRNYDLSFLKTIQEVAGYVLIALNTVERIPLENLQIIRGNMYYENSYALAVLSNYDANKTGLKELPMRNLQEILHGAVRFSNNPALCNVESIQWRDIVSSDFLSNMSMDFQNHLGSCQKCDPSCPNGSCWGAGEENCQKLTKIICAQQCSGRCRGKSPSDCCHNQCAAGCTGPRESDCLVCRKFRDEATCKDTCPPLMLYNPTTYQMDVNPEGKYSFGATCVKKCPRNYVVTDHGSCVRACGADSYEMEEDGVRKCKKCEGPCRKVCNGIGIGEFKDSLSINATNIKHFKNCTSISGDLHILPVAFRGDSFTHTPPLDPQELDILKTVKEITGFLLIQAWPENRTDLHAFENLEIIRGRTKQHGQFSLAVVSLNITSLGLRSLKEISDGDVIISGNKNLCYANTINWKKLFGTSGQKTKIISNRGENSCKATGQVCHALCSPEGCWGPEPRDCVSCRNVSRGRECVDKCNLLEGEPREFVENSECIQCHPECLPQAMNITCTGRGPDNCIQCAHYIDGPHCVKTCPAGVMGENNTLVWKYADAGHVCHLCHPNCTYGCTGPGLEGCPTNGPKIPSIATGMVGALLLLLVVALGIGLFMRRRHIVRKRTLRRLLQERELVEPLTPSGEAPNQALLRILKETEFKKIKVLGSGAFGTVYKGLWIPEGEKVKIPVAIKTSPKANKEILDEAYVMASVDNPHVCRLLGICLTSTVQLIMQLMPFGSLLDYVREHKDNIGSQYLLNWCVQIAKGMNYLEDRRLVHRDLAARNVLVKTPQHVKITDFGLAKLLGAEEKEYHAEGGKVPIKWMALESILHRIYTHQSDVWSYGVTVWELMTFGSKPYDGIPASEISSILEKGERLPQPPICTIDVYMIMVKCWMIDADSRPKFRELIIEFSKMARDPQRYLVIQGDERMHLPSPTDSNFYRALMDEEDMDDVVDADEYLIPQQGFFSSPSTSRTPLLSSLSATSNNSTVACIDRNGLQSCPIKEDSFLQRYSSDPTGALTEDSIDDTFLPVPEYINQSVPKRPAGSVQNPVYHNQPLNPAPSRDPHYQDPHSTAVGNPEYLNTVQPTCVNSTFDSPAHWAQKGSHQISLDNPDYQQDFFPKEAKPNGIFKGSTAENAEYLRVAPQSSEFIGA
EGFR^L858R/T790M/C797S, sequence (P00533 25-1210 T790M/C797S/L858R): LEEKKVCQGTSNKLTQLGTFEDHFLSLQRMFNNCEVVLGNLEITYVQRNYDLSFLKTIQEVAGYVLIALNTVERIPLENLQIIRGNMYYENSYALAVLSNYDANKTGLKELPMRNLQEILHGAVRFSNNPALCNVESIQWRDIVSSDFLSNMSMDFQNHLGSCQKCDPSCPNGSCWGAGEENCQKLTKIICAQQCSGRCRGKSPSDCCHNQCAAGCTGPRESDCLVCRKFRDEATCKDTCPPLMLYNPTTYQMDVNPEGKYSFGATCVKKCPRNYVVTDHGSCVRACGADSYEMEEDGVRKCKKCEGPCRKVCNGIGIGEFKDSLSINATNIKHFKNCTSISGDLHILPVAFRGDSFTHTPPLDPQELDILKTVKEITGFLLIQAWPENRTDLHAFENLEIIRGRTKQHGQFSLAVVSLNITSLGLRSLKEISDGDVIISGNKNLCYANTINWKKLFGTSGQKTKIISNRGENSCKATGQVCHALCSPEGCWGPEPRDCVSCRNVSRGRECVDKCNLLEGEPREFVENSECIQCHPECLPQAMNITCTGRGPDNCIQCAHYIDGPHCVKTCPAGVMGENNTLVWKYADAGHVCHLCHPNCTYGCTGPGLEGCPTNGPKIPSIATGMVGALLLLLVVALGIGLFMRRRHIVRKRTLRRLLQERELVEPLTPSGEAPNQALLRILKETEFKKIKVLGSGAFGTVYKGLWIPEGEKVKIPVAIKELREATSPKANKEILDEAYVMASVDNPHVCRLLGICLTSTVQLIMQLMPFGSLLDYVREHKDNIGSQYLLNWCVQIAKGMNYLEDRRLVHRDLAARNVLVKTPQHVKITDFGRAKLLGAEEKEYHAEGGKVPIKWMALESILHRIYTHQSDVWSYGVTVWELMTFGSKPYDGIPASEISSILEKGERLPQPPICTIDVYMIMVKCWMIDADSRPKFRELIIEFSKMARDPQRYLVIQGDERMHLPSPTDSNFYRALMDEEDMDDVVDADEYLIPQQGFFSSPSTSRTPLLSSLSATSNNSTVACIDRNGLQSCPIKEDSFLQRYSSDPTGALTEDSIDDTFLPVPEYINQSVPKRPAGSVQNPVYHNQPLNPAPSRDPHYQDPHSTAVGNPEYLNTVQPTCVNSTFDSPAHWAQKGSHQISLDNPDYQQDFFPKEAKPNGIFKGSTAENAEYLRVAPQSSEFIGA

Regarding `CCS(=O)(=O)n1cc2c3ccc(cc31)OCCCn1ccc(n1)-c1cc(c(C(C)C)cc1N1CCOCC1)Nc1nccc-2n1` [FBH-3-48, (Z)-1^1-(ethylsulfonyl)-4^6-isopropyl-4^4-morpholino-1^1H,5^1H-9-oxa-3-aza-1(3,6)-indole-2(4,2)-pyrimidine-5(4,1)-pyrazole-4(1,3)-benzenacyclononaphane], the IC50 in assay [1] is 8.2 nM; in assay [2] it was greater than 1000 nM.
For `CCS(=O)(=O)n1cc2c3ccc(cc31)OCCCn1ccc(n1)-c1cc(c(C3CC3)cc1N1CCOCC1)Nc1nccc-2n1` [FBH-3-66, (Z)-4^6-cyclopropyl-1^1-(ethylsulfonyl)-4^4-morpholino-1^1H,5^1H-9-oxa-3-aza-1(3,6)-indole-2(4,2)-pyrimidine-5(4,1)-pyrazol-4(1,3)-benzenacyclononaphane], in that order: 33 nM and greater than 1000 nM.
For `CCS(=O)(=O)n1cc2c3ccc(cc31)OCCCn1ccc(n1)-c1cc(c(OC(C)C)cc1N1CCOCC1)Nc1nccc-2n1` [FBH-3-84, (Z)-1^1-(ethylsulfonyl)-4^6-isopropoxy-4^4-morpholinyl-1^1H,5^1H-9-oxa-3-aza-1(3,6)-indole-2(4,2)-pyrimidin-5(4,1)-pyrazol-4(1,3)-benzocyclononaphthalene], in that order: 267 nM and greater than 1000 nM.
For `CCS(=O)(=O)n1cc2c3ccc(cc31)OCCCn1ccc(n1)-c1cc(c(C(F)(F)F)cc1N1CCOCC1)Nc1nccc-2n1` [FBH-3-92, (Z)-1^1-(ethylsulfonyl)-4^4-morpholinyl-4^6-(trifluoromethyl)-1^1H,5^1H-9-oxa-3-aza-1(3,6)-indole-2(4,2)-pyrimidine-5(4,1)-pyrazole-4(1,3)-benzenacyclononaphane], the IC50 in assay [3] is 159 nM; in assay [2], greater than 1000 nM.
The corresponding values for `CCS(=O)(=O)n1cc2c3ccc(cc31)OCCCn1ccc(n1)-c1cc(c(OC)cc1N1CCOCC1)Nc1nccc-2n1` [FBH-4-6, (E)-1^1-(ethylsulfonyl)-4^6-methoxy-4^4-morpholinyl-1^1H,5^1H-9-oxa-3-aza-1(3,6)-indole-2(4,2)-pyrimidine-5(3,1)-pyrazole-4(1,3)-benzocyclononaphthalene] are 147 nM and greater than 1000 nM.
The corresponding values for `CCS(=O)(=O)n1cc2c3ccc(cc31)OCCCn1ccc(n1)-c1cc(c(OC3CC3)cc1N1CCOCC1)Nc1nccc-2n1` [FBH-4-24, (Z)-4^6-cyclopropoxy-1^1-(ethylsulfonyl)-4^4-morpholinyl-1^1H,5^1H-9-oxa-3-aza-1(3,6)-indole-2(4,2)-pyrimidine-5(4,1)-pyrazole-4(1,3)-benzocyclononaphthalene] are 98.5 nM and 189 nM.
For `CCS(=O)(=O)n1cc2c3ccc(cc31)OCCCn1ccc(n1)-c1cc(c(OC(F)(F)F)cc1N1CCOCC1)Nc1nccc-2n1` [FBH-4-48, (Z)-1^1-(ethylsulfonyl)-4^4-morpholinyl-4^6-(trifluoromethoxy)-1^1H,5^1H-9-oxa-3-aza-1(3,6)-indole-2(4,2)-pyrimidine-5(4,1)-pyrazole-4(1,3)-benzocyclononaphthalene], in that order: 135 nM and greater than 1000 nM.
Consider `CCS(=O)(=O)n1cc2c3ccc(cc31)OCCCn1cc(cn1)-c1cc(c(OC)cc1N1CCOC(C)C1)Nc1nccc-2n1` (stereo not drawn) [WQX-2-43, (Z)-1^1-(Ethylsulfonyl)-4^6-methoxy-4^4-(2-methylmorpholinyl)-1^1H,5^1H-9-oxa-3-aza-1(3,6)-indol-2(4,2)-pyrimidin-5(4,1)-pyrazol-4(1,3)-benzocyclononane], for which the IC50 in assay [3] amounted to 57.8 nM; in assay [2], 146 nM.
`CCS(=O)(=O)n1cc2c3ccc(cc31)OCCCn1cc(cn1)-c1cc(c(OC)cc1N1CCOCC1)Nc1ncc(F)c-2n1` [WQX-2-79, (Z)-1^1-(ethylsulfonyl)-2^5-fluoro-4^6-methoxy-4^4-morpholinyl-1^1H,5^1H-9-oxa-3-aza-1(3,6)-indole-2(4,2)-pyrimidin-5(4,1)-pyrazol-4(1,3)-benzenacyclononaphane]: the IC50 in assay [3] stood at 102 nM; in assay [2], 255 nM.
